From ChEMBL document CHEMBL1201862, “PubChem BioAssay data set” (2004) come the findings set out here.

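Cells were grown in 96-well plates and exposed to each compound for 48 hours at five concentrations; endpoints were interpolated linearly between bracketing concentrations, or set to the highest concentration if not reached. GI50 = concentration required for 50% inhibition of growth.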 Activity calls are given as the source filed them. Rule as the data show it: active = GI50 up to about 1.1 µM and inactive = higher.

Holding throughout (experiment): inhibition of tumour cell growth, NCI panel, 48 h
In assay [1] the test system is SK-MEL-5.
For assay [2], the system named is DU-145.
The subject of assay [3] is A498.
In assay [4] the test system is OVCAR-4.
The subject of assay [5] is Malme-3M.
The subject of assay [6] is EKVX.
For assay [7], the system named is IGROV-1.
Assay [8] deals with M14.
Assay [9] deals with MDA-N.
The test system of assay [10] is SK-MEL-2.
Assay [11] relates to TK-10.
The test system of assay [12] is K562.
The subject of assay [13] is SN12C.
Assay [14] has as its system LOX IMVI.
The subject of assay [15] is RPMI-8226.
Assay [16] deals with SF-295.
In assay [17] the test system is COLO 205.
In assay [18] the test system is NCI-H522.
In assay [19] the test system is NCI/ADR-RES.
The subject of assay [20] is PC-3.

Turning to `CC(=O)Nc1ccc(-c2nc3ccccc3s2)cc1Cl`, the GI50 in assay [1] was > 100 µM (inactive); in assay [2], 55.6 µM (inactive); in assay [3], 5.68 µM (inactive); in assay [4], > 100 µM (inactive); in assay [5], > 100 µM (inactive); in assay [6] it was 5.6 µM (inactive). In addition, the GI50 in assay [7] was < 0.0217 µM (active); in [8], 68.7 µM (inactive); in assay [9] it was > 100 µM (inactive); in assay [10] it was > 100 µM (inactive); in assay [11] it was 0.0664 µM (active); in assay [12] it was > 100 µM (inactive). Further, the GI50 in [13] was > 100 µM (inactive); in [14], > 86.5 µM (inactive); in assay [15] it was > 100 µM (inactive); in [16] it was 41.9 µM (inactive); in assay [17], > 100 µM (inactive); in [18], 54.5 µM (inactive). The values for the GI50 in assay [19] and in assay [20] were > 86.9 µM (inactive) and > 100 µM (inactive), respectively.
Take `CC1=CC(C)(C)Nc2ccc(CSc3ccccc3)cc21`: the GI50 is 17.1 µM (inactive) in assay [1]; 22.8 µM (inactive) in [2]; 24.1 µM (inactive) in assay [3]; 21.1 µM (inactive) in assay [4]; 17.9 µM (inactive) in assay [5]; 22.1 µM (inactive) in [6]. The GI50 in assay [7] was 52.1 µM (inactive); in assay [8], 26.6 µM (inactive); in assay [9], 22 µM (inactive); in assay [10], 23.4 µM (inactive); in assay [11] it was 39.5 µM (inactive); in assay [12], 18 µM (inactive). The GI50 was 19.1 µM (inactive) in [13]; 30.7 µM (inactive) in assay [14]; 14.9 µM (inactive) in assay [15]; 20 µM (inactive) in assay [16]; 22 µM (inactive) in assay [17]; 16.8 µM (inactive) in [18]. Further, the GI50 is 41.9 µM (inactive) in assay [19] and 28.9 µM (inactive) in assay [20].
Regarding `CCCCOC(=O)N[C@H]1CCc2cc(OC)c(OC)c(OC)c2-c2ccc(SC)c(=O)cc21`, the GI50 in assay [1] was < 0.01 µM (active); in assay [2], < 0.01 µM (active); in assay [3], < 0.01 µM (active); in assay [4], 2.2 µM (inactive); in assay [5], < 0.01 µM (active); in assay [6], 16.3 µM (inactive). Also, the GI50 in assay [7] is 0.0101 µM (active); in assay [8], < 0.01 µM (active); in assay [9], < 0.01 µM (active); in [10], < 0.01 µM (active); in assay [11], 0.198 µM (active); in assay [12], < 0.0369 µM (active). For the same compound, the GI50 in assay [13], in assay [14], in assay [15], in [16], in assay [17] and in [18] was < 0.01 µM (active) in each case. The GI50 in assay [19] is < 0.01 µM (active); in assay [20], 0.0127 µM (active).
Regarding `Nc1ccc(-c2ccc(Nc3cc(S(=O)(=O)O)c(N)c4c3C(=O)c3ccccc3C4=O)cc2)c(S(=O)(=O)O)c1`, the GI50 in assay [1], in assay [2], in assay [3], in assay [4], in assay [5] and in [6] was > 100 µM (inactive) in each case. Further, the GI50 in assay [7], in assay [8], in assay [9], in assay [10], in assay [11] and in assay [12] was > 100 µM (inactive) throughout. Also, the GI50 in assay [13], in assay [14], in assay [15], in assay [16], in assay [17] and in assay [18] was > 100 µM (inactive) each time. The GI50 in assay [19] and in assay [20] was > 100 µM (inactive) in each case.
Regarding `O=C1Cc2c(-c3ccc(Cl)cc3)cc(-c3ccccc3)nc2-c2ccccc2N1`, the GI50 is 5.15 µM (inactive) in [1]; 8.18 µM (inactive) in assay [2]; 2.07 µM (inactive) in assay [3]; 6.62 µM (inactive) in assay [4]; 17 µM (inactive) in assay [5]; 10.5 µM (inactive) in assay [6]. Besides, the GI50 in assay [7] is 6.95 µM (inactive); in assay [8], 11.6 µM (inactive); in [9], 9.35 µM (inactive); in [10], 26.6 µM (inactive); in assay [11], 6.07 µM (inactive); in assay [12], 15.1 µM (inactive). Further, the GI50 in assay [13] is 3.71 µM (inactive); in [14], 6.56 µM (inactive); in assay [15], 9.25 µM (inactive); in [16], 6.38 µM (inactive); in [17] it was 2.46 µM (inactive); in assay [18], 8.38 µM (inactive). In addition, the GI50 in [19] is 6.19 µM (inactive); in [20], 19.4 µM (inactive).
For `COc1cc2c3c(c4ccc(OC)c(OC)c4c2cc1OC)CN1CCC[C@@H]1C3` [TYLOCREBRINE], the GI50 is 0.0292 µM (active) in assay [1]; 0.0248 µM (active) in [2]; < 0.01 µM (active) in assay [3]; 0.0301 µM (active) in assay [4]; 0.0248 µM (active) in [5]; 0.0172 µM (active) in assay [6]. Moreover, the GI50 is 0.0407 µM (active) in assay [7]; 0.0333 µM (active) in assay [8]; 0.0622 µM (active) in assay [9]; < 0.0153 µM (active) in assay [10]; 0.0574 µM (active) in assay [11]; 0.0191 µM (active) in assay [12]. The GI50 was 0.0564 µM (active) in [13]; 0.0249 µM (active) in [14]; 0.0325 µM (active) in assay [15]; 0.0395 µM (active) in assay [16]; 0.0228 µM (active) in [17]; 0.0313 µM (active) in assay [18]. Besides, the GI50 in assay [19] is < 0.0166 µM (active); in [20], 0.0582 µM (active).
Regarding `NC(CSCc1ccc(I)cc1)C(=O)O` (stereo not given), the GI50 in assay [1], in assay [2], in assay [3], in [4], in [5] and in [6] was > 100 µM (inactive) throughout. Also, the GI50 in assay [7], in [8], in [9], in assay [10], in assay [11] and in [12] was > 100 µM (inactive) each time. The GI50 in assay [13], in assay [14], in [15], in assay [16], in [17] and in assay [18] was > 100 µM (inactive) in each case. Also, the GI50 in assay [19] and in assay [20] was > 100 µM (inactive) each time.
With `CC[S+]([O-])c1c2cc(OC)ccc2nc2ccc(OC)cc12` (stereo not given), the GI50 is 16.4 µM (inactive) in assay [1]; 2.59 µM (inactive) in assay [2]; 17.3 µM (inactive) in assay [3]; 17 µM (inactive) in [4]; 5.12 µM (inactive) in [5]; 16.9 µM (inactive) in assay [6]. The GI50 in assay [7] is 4.94 µM (inactive); in [8], 10.2 µM (inactive); in assay [9], 4.71 µM (inactive); in assay [10], 17.5 µM (inactive); in [11], 5.38 µM (inactive); in assay [12], 2.42 µM (inactive). In addition, the GI50 is 4.58 µM (inactive) in [13]; 2.58 µM (inactive) in assay [14]; 3.45 µM (inactive) in assay [15]; 27.1 µM (inactive) in assay [16]; 6.08 µM (inactive) in assay [17]; 1.83 µM (inactive) in [18]. Moreover, the figures for the GI50 in assay [19] and in [20] were 20.4 µM (inactive) and 10.7 µM (inactive), respectively.
Take `Cc1c(/N=C\c2ccc(N(CCC#N)CCC#N)cc2)c(=O)n(-c2ccccc2)n1C`: the GI50 was > 100 µM (inactive) in assay [1]; > 100 µM (inactive) in assay [2]; 69.2 µM (inactive) in assay [3]; > 100 µM (inactive) in assay [4]; > 100 µM (inactive) in assay [5]; > 93.5 µM (inactive) in assay [6]. In addition, the GI50 in assay [7] is > 93.5 µM (inactive); in [8], 92.7 µM (inactive); in assay [9], > 100 µM (inactive); in assay [10] it was > 96.6 µM (inactive); in assay [11], 24.1 µM (inactive); in [12] it was > 100 µM (inactive). Moreover, the GI50 in assay [13] was > 93.5 µM (inactive); in assay [14] it was > 100 µM (inactive); in assay [15] it was > 100 µM (inactive); in [16], 25.7 µM (inactive); in [17], > 100 µM (inactive); in assay [18], > 100 µM (inactive). The GI50 in [19] and in [20] was > 100 µM (inactive) each time.
`COc1ccccc1CC(=O)C(O)(C(F)(F)F)C(F)(F)F`: the GI50 in assay [1], in [2], in assay [3], in assay [4], in assay [5] and in assay [6] was > 100 µM (inactive) in each case. The GI50 in [7], in assay [8], in [9], in assay [10], in assay [11] and in assay [12] was > 100 µM (inactive) each time. Also, the GI50 in assay [13], in [14], in assay [15], in assay [16], in assay [17] and in [18] was > 100 µM (inactive) each time. In addition, the GI50 in assay [19] and in assay [20] was > 100 µM (inactive) each time.
